These results are taken from patent publication US20070248629A1, “PHARMACEUTICAL FORMULATIONS FOR IONTOPHORETIC DRUG DELIVERY” (priority 2006, published 2007).

Molecules are shown by their SMILES. In brackets after ≈: the same amount, converted by molar mass.

Data set [1] in a line: physchem.
Data set [2] is described as follows: physchem. As to conditions: pH 11. The text has this: (§1) Essentially the same values are obtained from the propylene glycol/water formulations. […] The observed pH of the 88% neutralized solutions is weakly affected by the cosolvent to water ratio.
Data set [3] in a line: Solubility of acyclovir and sodium acyclovir in water and cosolvent mixtures. The conditions noted are these: propylene glycol/water solution, aqueous with cosolvent or surfactant or cyclodextrin.
Data set [4] is described as follows: Soluble acyclovir in acyclovir sodium gels by centrifugation and HPLC. The conditions noted are these: for soluble species contributing to soluble acyclovir: 88 mole % sodium hydroxide, based on base charge / calculated by difference.
From the text: The presence or absence of a pellet was noted and an aliquot of the supernatant was removed for dilution and analysis by HPLC.
as §1

For data set [5] the following is noted: pH 7; cited from earlier work.

In general, solubility refers to the dissolved amount per volume that the medium holds. What is called pKa is the negative logarithm of the acid dissociation constant. A lower pKa goes with a group that gives up its proton readily.

`Nc1nc2c(ncn2COCCO)c(=O)[nH]1` [acyclovir]: the solubility was 3000 µg/mL (≈ 13.3 mM) in the data set “physchem [1]” (pH 7, aqueous with cosolvent or surfactant or cyclodextrin) and 3000 µg/mL (≈ 13.3 mM) in data set [3]. Besides, in “physchem [2]”, the pKa turned out to be 9.8. For the same compound, in data set [4] (glycerin solutions, listed as neutral acyclovir), the “soluble species contributing to soluble acyclovir” value is reported as 0.3%. In addition, in data set [4] (partial neutralization (88 mole % sodium hydroxide), glycerin solutions), the “soluble acyclovir (total)” value was 5.3%. Moreover, the solubility in water in data set [5] was 1300 µg/mL (≈ 5.77 mM).

Turning to `Nc1nc2c(ncn2COCCO)c(=O)[nH]1` [sodium acyclovir], the solubility in “physchem [1]” (water) is over 100000 µg/mL. For the same compound, the “soluble species contributing to soluble acyclovir” value in data set [4] (glycerin solutions) is listed as 5.0%. The “solubility in gels with complete neutralization” value in data set [4] (105 and 116 mole % sodium hydroxide) is given as “greater than 5.7 weight percent”.
